Assay results from patent publication US20130123367A1, “VINYLOGOUS CHALCONE DERIVATIVES AND THEIR MEDICAL USE” (MEDIZINISCHE UNIVERSITAT WIEN, priority 2010, published 2013).
Like-named read-outs stand apart in the source and are kept apart here.

What was measured:
[1] = tested on: HCT116 cell line; assay: Cell proliferation assay using crystal violet, HCT116; format: cell-based; conditions: Homo sapiens, HCT-116, n = 3, 24 h incubation
Procedure: (§1) For quantification, cells are treated with crystal violet, a dye that stains proteins. After washing away of excess dye, the remaining crystal violet is dissolved in a sodium citrate solution. The solution is analyzed photometrically at 590 nm. The optical density of this solution depends on the concentration of crystal violet and therefore on the amount of cells. […] To reduce effects of evaporation, only the inner 60 wells of 96-well plates (coated with 0.1% gelatine solution for studies with HUVEC) were used for experiments.
(§2) Cells were seeded at a density of 5 000 cells per well in 100 μl growth medium (HUVEC) or 20 000 (HCT116), 15 000 (SW480 and 518A2) or 10 000 (HT29) cells per well in 200 μl growth medium in 55 wells per plate. 5 wells were filled with medium only. Additionally, a 96-well plate with cells in 12 wells and medium in 6 wells was prepared as T0-plate. The next day, additional 98 μl of growth medium were added in every well (only HUVEC).
(§3) Cells were treated with 2 μl of the working solution 24 h after seeding. Final compound concentrations in the well were 10 μM for the first round of screening. The final DMSO concentration was 0.5%. […] After finishing the addition of compounds, the T0-plate was stained with crystal violet for giving the cell density at time point zero. Before staining, the growth medium was poured away. Wells were filled with 50 μl crystal violet solution for 10 min. Then the staining solution was washed away with water. Since crystal violet is environmentally hazardous the waste was collected and disposed in an appropriate manner. After air drying of the plates the crystal violet on the cells was dissolved in 100 μl of sodium citrate solution, and the absorption was measured with a plate reader at 590 nm.
(§4) Mean values were corrected with the absorption of stained medium and the corrected absorption of T0 cells. Cell growth was calculated relative to DMSO control for data comparison.

[2] = tested on: HUVEC; assay: Cell proliferation assay using crystal violet, HUVEC; format: cell-based; conditions: Homo sapiens, n = 3, 48 h incubation, read-out: IC50 (nM) HUVEC (converted)
Procedure: as §1, §2, §3, §4

[3] = tested on: melanoma cell line 518A2; assay: Cell proliferation assay using crystal violet, 518A2; format: cell-based; conditions: Homo sapiens, 518A2; crystal violet assay; n = 3; 48 h incubation
Procedure: as §1, §2, §3
(§5) Mean values were corrected with the absorption of stained medium and the corrected absorption of T0 cells. Cell growth was calculated relative to DMSO control for data comparison. IC50 values (50% inhibition of cell growth) were determined with GraphPad Prism® (Version 4.03) using nonlinear regression (sigmoidal dose-response with variable slope).
(§6) Compounds showing an inhibition of proliferation of more than 50% at a concentration of 10 μM were defined as active, and their IC50-values were determined.

[4] = tested on: colon cancer cell line HT29; assay: Cell proliferation assay using crystal violet, HT29; format: cell-based; conditions: Homo sapiens, HT-29, n = 3, 24 h incubation
Procedure: as §1, §2, §3
as §5, with “slope). […]” for “slope).”

[5] = tested on: colon cancer cell line SW480; assay: Cell proliferation assay using crystal violet, SW480; format: cell-based; conditions: Homo sapiens, n = 3, 24 h incubation
Procedure: as §1, §2, §3, §5, §6

[6] = tested on: melanoma cell line 518A2; conditions: stated as comparison, no experiment described; read-out: IC50 value of cisplatin, comparison for melanoma cell line 518A2; cited from earlier work
[7] = tested on: CLL cell lines MEC-1 and MEC-2; assay: Annexin V-FITC / propidium iodide staining, apoptosis in CLL cell lines; format: cell-based; conditions: MEC-1 cells, 500 nM, 48 hours (FIG. 4b); called an outlier, not seen after 24 hours
Procedure: Apoptosis was detected using propidium iodide/Annexin V FACS staining (Bender MedSystems).
Annexin V binds to phosphatidylserine which is exposed at the cell surface during execution of apoptosis. First, cells were seeded out at a density of 1.5 to 2.5 million cells per well in 12 well plates and then growth medium was added to each well to get a final volume of 2.5 ml. Compounds to be tested were diluted with medium from a 10 mM stock solution in DMSO to get different concentrations and cells were treated with 25 μl of these solutions. The final DMSO concentration was 0.5%. All treatments and controls were performed twice. Cells were incubated at 37° C. and 5% CO2 for 24 h and 48 h. Then, growth medium was removed by centrifugation, the supernatant discarded and 200 μl of an Annexin V solution were added. After 10 minutes in the dark, cells were washed once with Annexin buffer and the solution removed by centrifugation. The supernatant was discarded again and cells were suspended in 200 μl of a propidium iodide solution. Cells were measured by flow cytometry with a total of 10 000 events. Data were analyzed with CellQuest Pro™.
Compounds 1 and 22 were also tested on the CLL cell lines MEC-1 and MEC-2 in comparison with fludarabine and cyclophosphamide, two compounds used in the treatment of hematological malignancies (MEC-1 is a fludarabine-resistant cell line).

[8] = tested on: healthy peripheral blood mononuclear cells (PBMC); assay: Effect on healthy PBMC (CellTiter-Blue viability); conditions: 48 h incubation; one individual; FIG. 8
Procedure: FIG. 8: Effect of compounds 1 and 22 according to the invention as well as the control drugs fludarabine and cyclophosphamide on the viability of healthy peripheral blood mononuclear cells (PBMC) in suspension culture after 48 h incubation. Data points represent one individual calculated in relation to the control. Viability was measured using the CellTiter Blue assay (Promega, Madison, Wis., USA), and cells incubated in solvent only were used as control.
For quantification, cells were treated with resazurin (7-hydroxy-3H-phenoxazin-3-one 10-oxide) as indicator of cell viability. The method is based on the finding that living cells are able to reduce the non-fluorescent blue dye into the pink colored and highly red fluorescent resorufine. After adding the substrate the cells are incubated for 2 to 4 hours. Then, the solution is analyzed at 560 nm Ex/590 nm Em on a fluorometer. Appropriate cell density for seeding and duration of treatment with the substrate were determined in preliminary experiments.
First, cells were seeded in 96 well plates and then growth medium was added to each well to get a final volume of 80 μl. Compounds to be tested were diluted with medium from a 10 mM stock solution in DMSO to get different concentrations, and 20 μl of these solutions were added to the wells. The final DMSO concentration was 0.5%. All treatments and controls were performed in at least triplicates. Cells were incubated at 37° C. and 5% CO2 for 48 h. Then, 20 μl substrate solution was added to the wells, plates were incubated for 3 hours and analyzed.
The impact of the compounds according to the invention on healthy cells was assessed using peripheral blood mononuclear cells (PBMC). Cell viability was tested using the CellTiter-Blue Cell Viability Assay (Promega, Madison, Wis., USA) as described in Example 7.

SMILES	IC50 [1] [nM]	IC50 [2] [nM]	other results
C=Cc1ccccc1/C=C/C=C/C(=O)c1ccccc1OC	804	760	
COc1ccccc1/C=C/C=C/C(=O)c1cc(OC)c(O)c(OC)c1			IC50 [3]: 2750 nM; IC50 [4]: 5790 nM; IC50 [5]: 2680 nM
N.N.[Cl][Pt][Cl] [cisplatin]			IC50 [6]: ~10 µM
COc1cc(C(=O)/C=C/C=C/c2ccccc2Cl)cc(OC)c1OC		1770	
COc1ccc(C(=O)/C=C/c2ccc(OC)c3ccccc23)cc1OC	> 10000	> 10000	
O=P1(N(CCCl)CCCl)NCCCO1 (stereo not drawn) [cyclophosphamide, reference compound]			apoptosis induction [7]: 40%; viability of healthy PBMC in suspension culture (toxicity) [8]: did not influence viability
COc1cc(C(=O)/C=C/C=C/c2ccccc2SC)cc(OC)c1OC			IC50 [3]: 160 nM; IC50 [4]: 240 nM; IC50 [5]: 260 nM
Nc1nc(F)nc2c1ncn2[C@@H]1O[C@H](CO)[C@@H](O)[C@@H]1O [fludarabine, reference compound]			viability of healthy PBMC in suspension culture (toxicity) [8]: the most toxic of the tested compounds
CCOc1ccccc1C(=O)/C=C/c1ccc(OC)c2ccccc12			IC50 [3]: > 10000 nM; IC50 [5]: > 10000 nM
COc1ccccc1C(=O)/C=C/c1ccc(OC)c2ccccc12	6850		
COc1ccccc1/C=C/C=C/C(=O)c1ccc(Cl)c([N+](=O)[O-])c1		5630	

Second part, led by results:

IC50 [1] [nM]	SMILES	IC50 [2] [nM]	other results
> 10000	COc1cccc(/C=C/C=C/C(=O)c2ccccc2OC)c1	8810	
4500	COc1cccc(/C=C/C=C/C(=O)c2cc(OC)c(OC)c(OC)c2)c1	3210	
4340	COc1cc(C(=O)/C=C/C=C/c2ccccc2)cc(OC)c1OC		
